For assay [1], the system named is Amyloid-β peptide release (Aβ42), HEK cells overexpressing APP (HEK-APP). Description: Amyloid-β peptide release (Aβ42) assay, AlphaLISA on supernatant of HEK-APP cells. In kind it is cell-based. To be noted: Homo sapiens, HEK293, 24 h incubation with compound, read-out: Ab42 IC50 Ranges. The procedure, abridged: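 HEK-APP cells treated with compounds for 24 h at 37 °C, 5% CO2. Supernatant Aβ42 or total Aβ measured by AlphaLISA after 4.5 h with antibody beads (6E10 acceptor beads for total). IC50 values derived.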
A general note: In Alpha technology, singlet oxygen from a donor bead excites a nearby acceptor bead.

Assay [2] has as its system Amyloid-β peptide release (AβTotal), HEK cells overexpressing APP (HEK-APP). Description: Amyloid-β peptide release (AβTotal) assay, AlphaLISA on supernatant of HEK-APP cells. To be noted: ratio Abtot vs Ab42, HEK-APP cells, 24 h. In kind it is cell-based.

The values below come from patent US9932354B2, “Imidazo-oxadiazole and imidazo-thiadiazole derivatives” (Ares Trading S.A., priority 2012, dated 2018).

By IC50 is commonly meant the concentration that inhibits the measured activity by half.

In the case of `Cc1ncc2oc(-c3ccc(NC(=O)Cc4ccc(Cl)c(Cl)c4)cn3)nn12` [Example 12, 2-(3,4-Dichloro-phenyl)-N-[6-(5-methyl-imidazo[5,1-b][1,2,4]oxadiazol-2-yl)-pyridin-3-yl]-acetamide], the IC50 in assay [1] lay in the range of 500 to 1000 nM. Further, the Abtot/Ab42 selectivity ranges result in assay [2] is “c (c: 50 fold > selectivity ≥ 10 fold)”.
For `Cc1ncc2oc(-c3ccc(NC(=O)Cc4ccc(Oc5ccccc5)cc4)cn3)nn12` [Example 78, N-[6-(5-Methyl-imidazo[5,1-b][1,2,4]oxadiazol-2-yl)-pyridin-3-yl]-2-(4-phenoxy-phenyl)-acetamide], in that order: 1000 to 2200 nM and “c (c: 50 fold > selectivity ≥ 10 fold)”.
For `Cc1ncc2sc(C(=O)NCc3ccccc3OCC(F)(F)F)nn12` [Example 92, 5-Methyl-imidazo[5,1-b][1,3,4]thiadiazole-2-carboxylic acid 2-(2,2,2-trifluoro-ethoxy)-benzylamide], in that order: < 100 nM and “d (d: 10 fold > selectivity)”.
`Cc1ncc2oc(-c3ccc(Nc4nc5c(s4)CCCC5c4ccc(F)cc4)cc3)nn12` (centres unmarked) [Example 27, [4-(4-Fluoro-phenyl)-4,5,6,7-tetrahydro-benzothiazol-2-yl]-[4-(5-methyl-imidazo[5,1-b][1,2,4]oxadiazol-2-yl)-phenyl]-amine]: in assay [1], the IC50 was in the range of 1000 to 2200 nM. In addition, the Abtot/Ab42 selectivity ranges entry in assay [2] was “d (d: 10 fold > selectivity)”.
As to `COc1cc(C(=O)NCc2cccc(C(F)(F)F)c2)ccc1-c1nn2c(C)ncc2o1` [Example 18, 3-Methoxy-4-(5-methyl-imidazo[5,1-b][1,2,4]oxadiazol-2-yl)-N-(3-trifluoromethyl-benzyl)-benzamide], in assay [1], the IC50 fell in the range of 1000 to 2200 nM. Also, in assay [2], the Abtot/Ab42 selectivity ranges result was “c (c: 50 fold > selectivity ≥ 10 fold)”.
`Cc1ncc2sc(C(=O)N3CCCCC3Cc3ccccc3)nn12` (centres unmarked) [Example 117, (2-Benzyl-piperidin-1-yl)-(5-methyl-imidazo[5,1-b][1,3,4]thiadiazol-2-yl)-methanone]: the concentration for half-maximal inhibition (IC50) in assay [1] is 1000 to 2200 nM. Moreover, the Abtot/Ab42 selectivity ranges result in assay [2] was “d (d: 10 fold > selectivity)”.
Consider `Cc1ncc2sc(C(=O)NCc3ccccc3-c3ccccc3)nn12` [Example 111, 5-Methyl-imidazo[5,1-b][1,3,4]thiadiazole-2-carboxylic acid (biphenyl-2-ylmethyl)-amide], for which the IC50 in assay [1] was 1000 to 2200 nM. For the same compound, the Abtot/Ab42 selectivity ranges result in assay [2] was “d (d: 10 fold > selectivity)”.
For the compound `Cc1ccc(C2CCCN2C(=O)c2nn3c(C)ncc3s2)cc1` (centres unmarked) [Example 119, (5-Methyl-imidazo[5,1-b][1,3,4]thiadiazol-2-yl)-(2-p-tolyl-pyrrolidin-1-yl)-methanone], in assay [1], the half-maximal inhibitory concentration (IC50) lay in the range of 100 to 500 nM. For the same compound, the Abtot/Ab42 selectivity ranges result in assay [2] is reported as “d (d: 10 fold > selectivity)”.
For `Cc1ncc2sc(C(=O)N3CCCC3c3cccc(Br)c3)nn12` (centres unmarked) [Example 123, [2-(3-Bromo-phenyl)-pyrrolidin-1-yl]-(5-methyl-imidazo[5,1-b][1,3,4]thiadiazol-2-yl)-methanone], in that order: 1000 to 2200 nM and “d (d: 10 fold > selectivity)”.
For `Cc1ncc2sc(-c3nnc(NCc4ccc(F)cc4)o3)nn12` [Example 103, (4-Fluoro-benzyl)-[5-(5-methyl-imidazo[5,1-b][1,3,4]thiadiazol-2-yl)-[1,3,4]oxadiazol-2-yl]-amine], in that order: 500 to 1000 nM and “d (d: 10 fold > selectivity)”.
For `Cc1ncc2sc(-c3ccc(NC(=O)Cc4cccc(C(F)(F)F)c4)cc3)nn12` [Example 100, N-[4-(5-Methyl-imidazo[5,1-b][1,3,4]thiadiazol-2-yl)-phenyl]-2-(3-trifluoromethyl-phenyl)-acetamide], in that order: 100 to 500 nM and “b (b: 100 fold > selectivity ≥ 50 fold)”.
Regarding `Cc1ncc2oc(-c3ccc(NC(=O)Nc4cccc(C(F)(F)F)c4)cc3)nn12` [Example 52, 1-[4-(5-Methyl-imidazo[5,1-b][1,2,4]oxadiazol-2-yl)-phenyl]-3-(3-trifluoromethyl-phenyl)-urea], the IC50 in assay [1] fell in the range of 1000 to 2200 nM. In addition, the Abtot/Ab42 selectivity ranges entry in assay [2] is given as “d (d: 10 fold > selectivity)”.
As to `Cc1cc(-c2nn3c(C)ncc3o2)ccc1NC(=O)Cc1cccc(Cl)c1` [Example 43, 2-(3-chlorophenyl)-N-(2-methyl-4-(5-methylimidazo[5,1-b][1,3,4]oxadiazol-2-yl)phenyl)acetamide], in assay [1], the IC50 fell in the range of 1000 to 2200 nM. In addition, the Abtot/Ab42 selectivity ranges result in assay [2] is recorded as “c (c: 50 fold > selectivity ≥ 10 fold)”.
